Measurements as given in paper PMC7914897, “Cytotoxic Potential of a-Azepano- and 3-Amino-3,4-SeCo-Triterpenoids” (International Journal of Molecular Sciences, 2021).
Where two headings read alike, the source gives them in different places.

Experiments:
SK-MEL-2 (Melanoma) = assay: NCI-60 screen (SRB, 48 h); conditions: Homo sapiens
MALME-3M (Melanoma) = assay: NCI-60 screen (SRB, 48 h); conditions: Homo sapiens
Leukemia subpanel = assay: cells; conditions: Homo sapiens
[1] = tested on: NCI-H226 (NSC lung cancer); assay: NCI-60 screen (SRB, 48 h); conditions: Homo sapiens
CNS cancer subpanel = assay: NCI-60 screen, subpanel; conditions: Homo sapiens
HCT-15 (Colon cancer) = assay: NCI-60 screen (SRB, 48 h); conditions: Homo sapiens
SN12C (Renal cancer) = assay: NCI-60 screen (SRB, 48 h); conditions: Homo sapiens
SF-539 (CNS cancer) = assay: NCI-60 screen (SRB, 48 h); conditions: Homo sapiens
[2] = tested on: panel of approximately 60 cancer cell lines; assay: NCI-60 screen (SRB, 48 h), full panel
K-562 (Leukemia) = assay: NCI-60 screen (SRB, 48 h); conditions: Homo sapiens
OVCAR-4 (Ovarian cancer) = assay: NCI-60 screen (SRB, 48 h); format: cell-based; conditions: Homo sapiens
SK-MEL-28 (Melanoma) = assay: NCI-60 screen (SRB, 48 h)
HS 578T (Breast cancer) = assay: NCI-60 screen (SRB, 48 h); conditions: Homo sapiens
UACC-257 (Melanoma) = assay: NCI-60 screen (SRB, 48 h); conditions: Homo sapiens
[3] = tested on: MDA-MB-31/ATCC (Breast cancer); assay: NCI-60 screen (SRB, 48 h); conditions: Homo sapiens
HCC-2998 (Colon cancer) = assay: NCI-60 screen (SRB, 48 h); conditions: Homo sapiens
OVCAR-8 (Ovarian cancer) = assay: NCI-60 screen (SRB, 48 h); conditions: Homo sapiens
OVCAR-5 (Ovarian cancer) = assay: NCI-60 screen (SRB, 48 h); conditions: Homo sapiens
SK-OV-3 (Ovarian cancer) = assay: NCI-60 screen (SRB, 48 h); conditions: Homo sapiens
[4] = tested on: NCI/ADR-RES (Ovarian cancer); assay: NCI-60 screen (SRB, 48 h); conditions: Homo sapiens
RPMI-8226 (Leukemia) = assay: NCI-60 screen (SRB, 48 h); conditions: Homo sapiens
[5] = tested on: NCI-H23 (NSC lung cancer); assay: NCI-60 screen (SRB, 48 h); conditions: Homo sapiens
M14 (Melanoma) = assay: NCI-60 screen (SRB, 48 h)
HOP-92 (NSC lung cancer) = assay: NCI-60 screen (SRB, 48 h); conditions: Homo sapiens
MDA-MB-435 (Melanoma) = assay: NCI-60 screen (SRB, 48 h); format: cell-based; conditions: Homo sapiens
U251 (CNS cancer) = assay: NCI-60 screen (SRB, 48 h); conditions: Homo sapiens
LOX IMVI (Melanoma) = assay: NCI-60 screen (SRB, 48 h); format: cell-based; conditions: Homo sapiens

CC1(C)CC[C@]2(CO)CC[C@]3(C)C(=CC[C@@H]4[C@@]5(C)CCCNC(C)(C)[C@@H]5CC[C@]43C)[C@@H]2C1 [Compound 3, azepanoerythrodiol]
GI50 (SK-MEL-2 (Melanoma); SK-MEL-2): 3.25 µM | IC (TGI) (SK-MEL-2 (Melanoma); SK-MEL-2, 48 h, read-out: TGI): 8.17 µM | CC50 (SK-MEL-2 (Melanoma); SK-MEL-2, read-out: LC50): 36.7 µM | GI50 (MALME-3M (Melanoma)): 2.02 µM | IC (TGI) (MALME-3M (Melanoma); 48 h, read-out: TGI): 3.56 µM | CC50 (MALME-3M (Melanoma); read-out: LC50): 6.27 µM | IC (TGI) (Leukemia subpanel; 48 h, read-out: TGI MG_MID): 54.8 µM | GI50 (Leukemia subpanel; read-out: GI50 MG_MID): 2.03 µM | CC50 (Leukemia subpanel; read-out: LC50 MG_MID): > 100 µM | GI50 ([1]; NCI-H226): 1.13 µM | IC (TGI) ([1]; NCI-H226, 48 h, read-out: TGI): 28.5 µM | CC50 ([1]; NCI-H226, read-out: LC50): 71.8 µM | IC (TGI) (CNS cancer subpanel; 48 h, read-out: TGI MG_MID): 4.13 µM | GI50 (CNS cancer subpanel; read-out: GI50 MG_MID): 6.53 µM | CC50 (CNS cancer subpanel; read-out: LC50 MG_MID): 40 µM | GI50 (HCT-15 (Colon cancer); HCT-15): 3.06 µM | IC (TGI) (HCT-15 (Colon cancer); HCT-15, 48 h, read-out: TGI): 1.04 µM | CC50 (HCT-15 (Colon cancer); HCT-15, read-out: LC50): 42.3 µM | GI50 (SN12C (Renal cancer)): 4.02 µM | IC (TGI) (SN12C (Renal cancer); 48 h, read-out: TGI): 16.8 µM | CC50 (SN12C (Renal cancer); read-out: LC50): 45.6 µM | GI50 (SF-539 (CNS cancer); SF-539): 11 µM | IC (TGI) (SF-539 (CNS cancer); SF-539, 48 h, read-out: TGI): 2.41 µM | CC50 (SF-539 (CNS cancer); SF-539, read-out: LC50): 52.7 µM | Positive Cytostatic Effect (cell lines with percent growth 0 to 50 / total) ([2]; 1 dose 10 µM): 20/57 | Positive Cytotoxic Effect (cell lines with percent growth < 0 / total) ([2]; 1 dose 10 µM): 19/57 | number of cancer cell lines the compound was active against ([2]; 1 dose 10 µM): 30 cell lines | activity at 10 µM ([2]; Homo sapiens, 48 h, read-out: Mean Growth, %): 18.9% | activity at 10 µM ([2]; Homo sapiens, 48 h, read-out: Range of Growth, %): -88.4 to 89.3% | IC (TGI) ([2]; Homo sapiens, 48 h, read-out: TGI MG_MID60, average over all cell lines): 15.5 µM | GI50 ([2]; Homo sapiens, read-out: GI50 MG_MID60): 3.83 µM | GI50 ([2]; Homo sapiens, read-out: GI50 against all human tumor cell lines): < 10 µM | GI50 ([2]; Homo sapiens, read-out: GI50 against the most sensitive cell lines): 0.2 to 0.94 µM | CC50 ([2]; Homo sapiens, read-out: LC50 MG_MID60, average over all cell lines): 32 µM | selectivity indexes at TGI level (subpanels) ([2]; MG_MID60/subpanel MG_MID): 3.59–4.69 | GI50 (K-562 (Leukemia); K562): 0.4 µM | IC (TGI) (K-562 (Leukemia); K562, 48 h, read-out: TGI): > 100 µM | CC50 (K-562 (Leukemia); K562, read-out: LC50): > 100 µM | IC (TGI) (OVCAR-4 (Ovarian cancer); OVCAR-4, 48 h): 17.5 µM | GI50 (OVCAR-4 (Ovarian cancer); OVCAR-4, read-out: GI50): 4.48 µM | CC50 (OVCAR-4 (Ovarian cancer); OVCAR-4, read-out: LC50 (the source's name)): 45.2 µM | GI50 (SK-MEL-28 (Melanoma); Homo sapiens, SK-MEL-28): 1.7 µM | IC (TGI) (SK-MEL-28 (Melanoma); Homo sapiens, SK-MEL-28, 48 h, read-out: TGI): 3.14 µM | CC50 (SK-MEL-28 (Melanoma); Homo sapiens, SK-MEL-28, read-out: LC50): 5.78 µM | Growth % of the Most Sensitive Cell Lines (SK-MEL-28 (Melanoma); SK-MEL-28, 1 dose 10 µM): −81.53% | GI50 (HS 578T (Breast cancer)): 6.16 µM | IC (TGI) (HS 578T (Breast cancer); 48 h, read-out: TGI): 24.7 µM | CC50 (HS 578T (Breast cancer); read-out: LC50): 77.4 µM | GI50 (UACC-257 (Melanoma); UACC-257): 2.49 µM | IC (TGI) (UACC-257 (Melanoma); UACC-257, 48 h, read-out: TGI): 6.47 µM | CC50 (UACC-257 (Melanoma); UACC-257, read-out: LC50): 27.6 µM | GI50 [3]: 3.5 µM | IC (TGI) ([3]; 48 h, read-out: TGI): 13 µM | CC50 ([3]; read-out: LC50): 45.6 µM | GI50 (HCC-2998 (Colon cancer); HCC 2998): 1.89 µM | IC (TGI) (HCC-2998 (Colon cancer); HCC 2998, 48 h, read-out: TGI): 3.81 µM | CC50 (HCC-2998 (Colon cancer); HCC 2998, read-out: LC50): 7.69 µM | GI50 (OVCAR-8 (Ovarian cancer); OVCAR-8): 3.83 µM | IC (TGI) (OVCAR-8 (Ovarian cancer); OVCAR-8, 48 h, read-out: TGI): 15.6 µM | CC50 (OVCAR-8 (Ovarian cancer); OVCAR-8, read-out: LC50): 54.1 µM | GI50 (OVCAR-5 (Ovarian cancer); OVCAR-5): 11.9 µM | IC (TGI) (OVCAR-5 (Ovarian cancer); OVCAR-5, 48 h, read-out: TGI): 24.6 µM | CC50 (OVCAR-5 (Ovarian cancer); OVCAR-5, read-out: LC50): 51 µM | GI50 (SK-OV-3 (Ovarian cancer); SK-OV-3): 14.1 µM | IC (TGI) (SK-OV-3 (Ovarian cancer); SK-OV-3, 48 h, read-out: TGI): 28.9 µM | CC50 (SK-OV-3 (Ovarian cancer); SK-OV-3, read-out: LC50): 59.2 µM | GI50 [4]: 10.2 µM | IC (TGI) ([4]; 48 h, read-out: TGI): 24 µM | CC50 ([4]; read-out: LC50): 56.3 µM | GI50 (RPMI-8226 (Leukemia); RPMI-8226): 2.71 µM | IC (TGI) (RPMI-8226 (Leukemia); RPMI-8226, 48 h, read-out: TGI): 10.1 µM | CC50 (RPMI-8226 (Leukemia); RPMI-8226, read-out: LC50): > 100 µM | GI50 ([5]; NCI-H23): 1.11 µM | IC (TGI) ([5]; NCI-H23, 48 h, read-out: TGI): 24.6 µM | CC50 ([5]; NCI-H23, read-out: LC50): 54.5 µM | GI50 (M14 (Melanoma); Homo sapiens, M14): 2.04 µM | IC (TGI) (M14 (Melanoma); Homo sapiens, M14, 48 h, read-out: TGI): 3.87 µM | CC50 (M14 (Melanoma); Homo sapiens, M14, read-out: LC50): 7.34 µM | Growth % of the Most Sensitive Cell Lines (M14 (Melanoma); M14, 1 dose 10 µM): −82.21% | GI50 (HOP-92 (NSC lung cancer); HOP-92): 1.36 µM | IC (TGI) (HOP-92 (NSC lung cancer); HOP-92, 48 h, read-out: TGI): 30.7 µM | CC50 (HOP-92 (NSC lung cancer); HOP-92, read-out: LC50): 6.92 µM | GI50 (MDA-MB-435 (Melanoma); MDA-MB-435): 1.71 µM | IC (TGI) (MDA-MB-435 (Melanoma); MDA-MB-435, 48 h, read-out: TGI): 3.36 µM | CC50 (MDA-MB-435 (Melanoma); MDA-MB-435, read-out: LC50 (the source's name)): 6.59 µM | GI50 (U251 (CNS cancer); U-251): 1.94 µM | IC (TGI) (U251 (CNS cancer); U-251, 48 h, read-out: TGI): 4.18 µM | CC50 (U251 (CNS cancer); U-251, read-out: LC50): 9 µM | IC (TGI) (LOX IMVI (Melanoma); 48 h): 3.19 µM | activity at 10 µM (LOX IMVI (Melanoma); 48 h, 1 dose 10 µM, read-out: Growth % of the Most Sensitive Cell Lines): -88.2% | GI50 (LOX IMVI (Melanoma); read-out: GI50): 1.68 µM | CC50 (LOX IMVI (Melanoma); read-out: LC50 (the source's name)): 6.05 µM
